Results taken from US8580802B2, “Pyrrolo[2,3-D]pyrimidines as inhibitors of Janus kinases” (Vertex Pharmaceuticals Incorporated, priority 2005, dated 2013).

Experiments:
JAK2 = JAK2 (Homo sapiens, UniProt O60674); assay: JAK2 Inhibition Assay; format: biochemical; settings: JAK-2 enzyme, 15 μM poly(Glu)4Tyr, 12 μM ATP
Procedure: (§1) Compounds were screened for their ability to inhibit JAK3 using the assay shown below. Reactions were carried out in a kinase buffer containing 100 mM HEPES (pH 7.4), 1 mM DTT, 10 mM MgCl2, 25 mM NaCl, and 0.01% BSA. Substrate concentrations in the assay were 5 μM ATP (200 uCi/μmole ATP) and 1 μM poly(Glu)4Tyr. Reactions were carried out 25° C. and 1 nM JAK3.
(§2) To each well of a 96 well polycarbonate plate was added 1.5 μl of a candidate JAK3 inhibitor along with 50 μl of kinase buffer containing 2 μM poly(Glu)4Tyr and 10 μM ATP. This was then mixed and 50 μl of kinase buffer containing 2 nM JAK3 enzyme was added to start the reaction. After 20 minutes at room temperature (25° C.), the reaction was stopped with 50 μl of 20% trichloroacetic acid (TCA) that also contained 0.4 mM ATP. The entire contents of each well were then transferred to a 96 well glass fiber filter plate using a TomTek Cell Harvester. After washing, 60 μl of scintillation fluid was added and ^33P incorporation detected on a Perkin Elmer TopCount.
The assays were as described above in Example 36 except that JAK-2 enzyme was used, the final poly(Glu)4Tyr concentration was 15 μM, and final ATP concentration was 12 μM.

JAK3 = target: T1, JAK3 (Homo sapiens, UniProt P52333); assay: JAK3 Inhibition Assay; format: biochemical; settings: 1 nM JAK3, 1 μM poly(Glu)4Tyr, 5 μM ATP, 25° C.; read-out: enzyme inhibition data (Ki) JAK3
T1 sequence (P52333 1-1124): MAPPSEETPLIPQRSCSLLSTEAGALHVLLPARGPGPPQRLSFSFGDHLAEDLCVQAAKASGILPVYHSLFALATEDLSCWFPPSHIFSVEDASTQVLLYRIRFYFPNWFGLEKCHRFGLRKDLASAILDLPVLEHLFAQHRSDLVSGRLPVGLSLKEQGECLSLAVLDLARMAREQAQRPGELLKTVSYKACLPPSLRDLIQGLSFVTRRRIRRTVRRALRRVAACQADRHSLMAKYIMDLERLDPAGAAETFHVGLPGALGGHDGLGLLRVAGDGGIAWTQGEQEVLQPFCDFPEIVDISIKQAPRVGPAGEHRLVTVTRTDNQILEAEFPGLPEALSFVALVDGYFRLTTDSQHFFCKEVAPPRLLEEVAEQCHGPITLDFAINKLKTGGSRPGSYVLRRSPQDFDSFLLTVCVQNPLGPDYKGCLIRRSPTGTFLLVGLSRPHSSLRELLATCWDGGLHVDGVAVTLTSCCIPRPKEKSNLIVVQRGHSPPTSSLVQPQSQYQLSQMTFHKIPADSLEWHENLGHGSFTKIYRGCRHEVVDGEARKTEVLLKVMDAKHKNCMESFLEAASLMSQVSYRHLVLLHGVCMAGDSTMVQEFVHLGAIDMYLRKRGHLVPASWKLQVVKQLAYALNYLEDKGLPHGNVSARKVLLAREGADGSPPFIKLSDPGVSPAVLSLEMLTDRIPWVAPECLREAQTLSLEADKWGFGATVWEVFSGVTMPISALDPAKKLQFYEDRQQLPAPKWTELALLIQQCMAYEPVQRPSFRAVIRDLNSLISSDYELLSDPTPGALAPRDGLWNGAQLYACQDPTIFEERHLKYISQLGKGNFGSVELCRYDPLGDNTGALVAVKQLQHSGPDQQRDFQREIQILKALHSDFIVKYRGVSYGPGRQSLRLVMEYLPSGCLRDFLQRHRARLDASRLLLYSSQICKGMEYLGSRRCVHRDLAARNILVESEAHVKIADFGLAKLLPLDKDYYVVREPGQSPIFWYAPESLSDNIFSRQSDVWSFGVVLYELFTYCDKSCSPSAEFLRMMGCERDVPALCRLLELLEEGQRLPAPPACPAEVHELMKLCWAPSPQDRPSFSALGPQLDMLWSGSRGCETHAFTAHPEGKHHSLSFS
Procedure: as §1, §2

JAK2, sequence (O60674 whole entry): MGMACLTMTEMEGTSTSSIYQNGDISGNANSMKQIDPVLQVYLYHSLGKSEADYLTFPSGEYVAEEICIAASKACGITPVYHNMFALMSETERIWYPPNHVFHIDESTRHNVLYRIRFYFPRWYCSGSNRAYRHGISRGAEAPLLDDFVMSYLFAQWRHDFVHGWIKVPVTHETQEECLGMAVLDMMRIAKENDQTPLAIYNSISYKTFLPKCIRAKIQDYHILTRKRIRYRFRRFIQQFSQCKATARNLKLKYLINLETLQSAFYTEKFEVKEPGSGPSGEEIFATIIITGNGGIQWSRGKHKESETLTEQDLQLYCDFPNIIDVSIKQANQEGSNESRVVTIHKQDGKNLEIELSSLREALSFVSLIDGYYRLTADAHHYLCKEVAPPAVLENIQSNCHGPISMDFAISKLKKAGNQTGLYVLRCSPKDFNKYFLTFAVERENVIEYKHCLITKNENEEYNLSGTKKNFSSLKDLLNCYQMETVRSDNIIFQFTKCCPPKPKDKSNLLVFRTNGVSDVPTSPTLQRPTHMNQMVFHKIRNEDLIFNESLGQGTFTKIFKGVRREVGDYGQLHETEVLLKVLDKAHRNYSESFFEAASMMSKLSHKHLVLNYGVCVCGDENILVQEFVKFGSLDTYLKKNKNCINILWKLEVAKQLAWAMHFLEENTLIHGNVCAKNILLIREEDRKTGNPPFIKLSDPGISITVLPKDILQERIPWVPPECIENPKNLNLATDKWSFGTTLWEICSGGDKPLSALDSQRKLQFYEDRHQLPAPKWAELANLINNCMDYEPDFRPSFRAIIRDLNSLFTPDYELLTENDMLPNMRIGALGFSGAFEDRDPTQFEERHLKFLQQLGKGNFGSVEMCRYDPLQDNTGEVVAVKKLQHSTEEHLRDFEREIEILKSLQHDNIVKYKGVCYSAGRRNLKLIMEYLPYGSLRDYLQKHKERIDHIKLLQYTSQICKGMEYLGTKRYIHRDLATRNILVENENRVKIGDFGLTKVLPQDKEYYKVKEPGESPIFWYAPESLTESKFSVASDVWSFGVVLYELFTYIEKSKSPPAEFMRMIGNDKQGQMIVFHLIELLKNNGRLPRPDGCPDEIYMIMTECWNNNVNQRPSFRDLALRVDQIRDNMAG

Ki (JAK2) [µM]	Ki (JAK3) [µM]	SMILES
0.5 to 5	0.5 to 5	OC[C@H]1CCCN1c1nc(-c2c[nH]c3ncncc23)ncc1F [Compound 22, ((R)-1-(5-fluoro-2-(7H-pyrrolo[2,3-d]pyrimidin-5-yl)pyrimidin-4-yl)pyrrolidin-2-yl)methanol]
0.5 to 5	< 0.5	C[C@H](Nc1ncnc(-c2c[nH]c3ncncc23)n1)C(=O)NCC(F)(F)F [Compound 79, (S)-2-(4-(7H-pyrrolo[2,3-d]pyrimidin-5-yl)-1,3,5-triazin-2-ylamino)-N-(2,2,2-trifluoroethyl)propanamide]
< 0.5	< 0.5	C[C@H](Nc1ccnc(-c2c[nH]c3ncncc23)n1)C(=O)NCC(F)(F)F [Compound 5, (S)-2-(2-(7H-pyrrolo[2,3-d]pyrimidin-5-yl)pyrimidin-4-ylamino)-N-(2,2,2-trifluoroethyl)propanamide]
0.5 to 5	0.5 to 5	C[C@H](Nc1cc(C(=O)N(C)CCO)nc(-c2c[nH]c3ncncc23)n1)C(=O)NCC(F)(F)F [Compound 15]
> 5	0.5 to 5	C[C@H](Nc1cc(OC2CCOC2)nc(-c2c[nH]c3ncncc23)n1)C(=O)NCC(F)(F)F (some centres unmarked) [Compound 10]
< 0.5	< 0.5	CCC(CC)(Nc1nc(-c2c[nH]c3ncncc23)ncc1F)C(=O)NCC(F)(F)F [Compound 89]
< 0.5	< 0.5	CN(c1ccnc(-c2c[nH]c3ncncc23)n1)C1(C(=O)NCC(F)(F)F)CC1 [Compound 96]
> 5	> 5	C[C@H](Nc1cc(N2CCCC2)nc(-c2c[nH]c3ncncc23)n1)C(=O)NCC(F)(F)F [Compound 32, (S)-2-(6-(pyrrolidin-1-yl)-2-(7H-pyrrolo[2,3-d]pyrimidin-5-yl)pyrimidin-4-ylamino)-N-(2,2,2-trifluoroethyl)propanamide]
0.5 to 5	0.5 to 5	COC[C@@H]1CCCN1c1nc(-c2c[nH]c3ncncc23)ncc1F [Compound 23, 5-(5-fluoro-4-((S)-2-(methoxymethyl)pyrrolidin-1-yl)pyrimidin-2-yl)-7H-pyrrolo[2,3-d]pyrimidine]
< 0.5	< 0.5	CC(C)[C@@H](Nc1ccnc(-c2c[nH]c3ncncc23)n1)C(=O)NCC(F)(F)F [Compound 68]
0.5 to 5	< 0.5	C[C@H](Nc1nc(-c2c[nH]c3ncncc23)nc2ccccc12)C(=O)NCC(F)(F)F [Compound 34]
< 0.5	< 0.5	CC[C@@](C)(Nc1nc(-c2c[nH]c3ncncc23)ncc1F)C(=O)NCC(F)(F)F [Compound 81]
0.5 to 5	< 0.5	CC1CCN(C(=O)c2cc(N[C@@H](C)C(=O)NCC(F)(F)F)nc(-c3c[nH]c4ncncc34)n2)CC1 [Compound 7]
0.5 to 5	< 0.5	COC[C@H](Nc1nc(-c2c[nH]c3ncncc23)ncc1F)C(=O)NCC(F)(F)F [Compound 42, (S)-2-(5-fluoro-2-(7H-pyrrolo[2,3-d]pyrimidin-5-yl)pyrimidin-4-ylamino)-N-(2,2,2-trifluoroethyl)-3-methoxypropanamide]
> 5	0.5 to 5	O=C(NCC(F)(F)F)[C@@H]1CCCN1c1nc(-c2c[nH]c3ncncc23)ncc1F [Compound 26]
0.5 to 5	< 0.5	O=C(CNc1nc(-c2c[nH]c3ncncc23)ncc1F)NCC(F)(F)F [Compound 70]
< 0.5	< 0.5	CC(C)[C@H](C(=O)NCC(F)(F)F)N(C)c1ccnc(-c2c[nH]c3ncncc23)n1 [Compound 73]
< 0.5	< 0.5	CC(C)(C(=O)NCC(F)(F)F)n1cnc2cnc(-c3c[nH]c4ncncc34)nc21 [Compound 108, 2-(2-(7H-pyrrolo[2,3-d]pyrimidin-5-yl)-9H-purin-9-yl)-N-(2,2,2-trifluoroethyl)-2-methylpropanamide]
0.5 to 5	< 0.5	C[C@H](Nc1cc(C(=O)N2CCC[C@H]2CO)nc(-c2c[nH]c3ncncc23)n1)C(=O)NCC(F)(F)F [Compound 8]

Ki (JAK2) [µM]	Ki (JAK3) [µM]	SMILES
0.5 to 5	< 0.5	C[C@@H](Nc1nc(-c2c[nH]c3ncncc23)ncc1F)C(=O)N(C)CC(F)(F)F [Compound 104]
< 0.5	< 0.5	O=C(NCC(F)(F)F)[C@H]1CCCN1c1ccnc(-c2c[nH]c3ncncc23)n1 [Compound 72]
0.5 to 5	< 0.5	C[C@H](Nc1nc(-c2c[nH]c3ncncc23)ccc1[N+](=O)[O-])C(=O)NCC(F)(F)F [Compound 46]
0.5 to 5	< 0.5	COCCNC(=O)c1cc(N[C@@H](C)C(=O)NCC(F)(F)F)nc(-c2c[nH]c3ncncc23)n1 [Compound 14]
< 0.5	< 0.5	CC(C)C(C(=O)NCC(F)(F)F)N(C)c1nc(-c2c[nH]c3ncncc23)ncc1F (centres unmarked) [Compound 66]
0.5 to 5	< 0.5	C[C@H](Nc1cc(C(=O)N2CCOCC2)nc(-c2c[nH]c3ncncc23)n1)C(=O)NCC(F)(F)F [Compound 12]
> 5	0.5 to 5	COC[C@H]1CCCN1C(=O)c1cc(N[C@@H](C)C(=O)NCC(F)(F)F)nc(-c2c[nH]c3ncncc23)n1 [Compound 11]
< 0.5	< 0.5	CC(=O)N1[C@H](C)CN(c2cccc(-c3c[nH]c4ncncc34)n2)C[C@@H]1C [Compound 1, 1-((2S,6R)-4-(6-(7H-pyrrolo[2,3-d]pyrimidin-5-yl)pyridin-2-yl)-2,6-dimethylpiperazin-1-yl)ethanone]
0.5 to 5	< 0.5	CN(c1ccnc(-c2c[nH]c3ncncc23)n1)C(C(=O)NCC(F)(F)F)c1ccccc1 (centres unmarked) [Compound 97]
> 5	0.5 to 5	COC[C@H](Nc1ccnc(-c2c[nH]c3ncncc23)n1)C(=O)NCC(F)(F)F [Compound 48, (S)-2-(2-(7H-pyrrolo[2,3-d]pyrimidin-5-yl)pyrimidin-4-ylamino)-N-(2,2,2-trifluoroethyl)-3-methoxypropanamide]
< 0.5	< 0.5	O=C(CCNc1nc(-c2c[nH]c3ncncc23)ncc1F)NCC(F)(F)F [Compound 71]
< 0.5	< 0.5	CC(C)(Nc1ccnc(-c2c[nH]c3ncncc23)n1)C(=O)NCC(F)(F)F [Compound 63]
0.5 to 5	0.5 to 5	CNC(=O)C(CC(F)(F)F)Nc1nc(-c2c[nH]c3ncncc23)ncc1F (centres unmarked) [Compound 43, 2-(5-fluoro-2-(7H-pyrrolo[2,3-d]pyrimidin-5-yl)pyrimidin-4-ylamino)-4,4,4-trifluoro-N-methylbutanamide]
< 0.5	< 0.5	C[C@@H](Nc1nc(-c2c[nH]c3ncncc23)ncc1F)c1ccc(F)cc1 [Compound 58]
0.5 to 5	0.5 to 5	COC[C@H]1CCCN1c1nc(-c2c[nH]c3ncncc23)ncc1F [Compound 25, 5-(5-fluoro-4-((R)-2-(methoxymethyl)pyrrolidin-1-yl)pyrimidin-2-yl)-7H-pyrrolo[2,3-d]pyrimidine]
< 0.5	< 0.5	O=C(NCC(F)(F)F)C(CC(F)(F)F)Nc1nc(-c2c[nH]c3ncncc23)ncc1F (centres unmarked) [Compound 45, 2-(5-fluoro-2-(7H-pyrrolo[2,3-d]pyrimidin-5-yl)pyrimidin-4-ylamino)-4,4,4-trifluoro-N-(2,2,2-trifluoroethyl)butanamide]
< 0.5	< 0.5	CC[C@@H](Nc1ncnc(-c2c[nH]c3ncncc23)n1)C(=O)NCC(F)(F)F [Compound 91]
0.5 to 5	< 0.5	C[C@@H](c1ccccc1)N(C)c1ccnc(-c2c[nH]c3ncncc23)n1 [Compound 86]
